Patent publication US9604988B2, “Agent for treating or inhibiting recurrence of acute myeloid leukemia” (RIKEN, priority 2012, dated 2017)

What was measured:
[1] = target: HCK (Homo sapiens, UniProt P08631); assay: HCK kinase inhibition; type: biochemical
[2] = target: hERG (Homo sapiens, UniProt Q12809); assay: hERG inhibition (automated patch-clamp); type: cell-based
[3] = target: T1, FLT3-ITD (Homo sapiens, UniProt P36888, ITD); assay: FLT3-ITD kinase inhibition; type: biochemical
T1 sequence (P36888 27-993): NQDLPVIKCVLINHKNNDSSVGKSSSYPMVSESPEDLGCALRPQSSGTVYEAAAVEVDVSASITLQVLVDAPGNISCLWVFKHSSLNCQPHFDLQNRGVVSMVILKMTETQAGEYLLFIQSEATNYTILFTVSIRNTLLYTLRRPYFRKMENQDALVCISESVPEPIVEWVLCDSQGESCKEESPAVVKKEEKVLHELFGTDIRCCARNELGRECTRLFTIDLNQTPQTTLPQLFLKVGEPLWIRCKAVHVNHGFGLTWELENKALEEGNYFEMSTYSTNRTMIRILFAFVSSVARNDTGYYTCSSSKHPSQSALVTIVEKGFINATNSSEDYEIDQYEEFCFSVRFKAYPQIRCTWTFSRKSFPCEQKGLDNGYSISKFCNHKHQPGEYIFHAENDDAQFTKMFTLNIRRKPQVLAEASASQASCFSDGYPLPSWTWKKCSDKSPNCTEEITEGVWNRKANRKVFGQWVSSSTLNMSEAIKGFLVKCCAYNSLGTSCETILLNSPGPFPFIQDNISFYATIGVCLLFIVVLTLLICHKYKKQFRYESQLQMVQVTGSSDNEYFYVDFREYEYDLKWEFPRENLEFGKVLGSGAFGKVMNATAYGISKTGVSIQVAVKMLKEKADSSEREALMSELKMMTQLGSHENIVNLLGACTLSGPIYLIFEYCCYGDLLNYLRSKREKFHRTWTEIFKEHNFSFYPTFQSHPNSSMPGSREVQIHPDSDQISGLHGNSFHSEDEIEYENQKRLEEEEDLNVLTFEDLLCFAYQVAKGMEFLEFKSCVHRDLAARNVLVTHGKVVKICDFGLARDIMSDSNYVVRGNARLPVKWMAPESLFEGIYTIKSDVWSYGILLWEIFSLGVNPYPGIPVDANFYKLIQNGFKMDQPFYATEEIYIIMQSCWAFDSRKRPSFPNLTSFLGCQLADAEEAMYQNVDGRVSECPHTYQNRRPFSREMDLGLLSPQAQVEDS

Chain of hERG (Q12809 whole entry): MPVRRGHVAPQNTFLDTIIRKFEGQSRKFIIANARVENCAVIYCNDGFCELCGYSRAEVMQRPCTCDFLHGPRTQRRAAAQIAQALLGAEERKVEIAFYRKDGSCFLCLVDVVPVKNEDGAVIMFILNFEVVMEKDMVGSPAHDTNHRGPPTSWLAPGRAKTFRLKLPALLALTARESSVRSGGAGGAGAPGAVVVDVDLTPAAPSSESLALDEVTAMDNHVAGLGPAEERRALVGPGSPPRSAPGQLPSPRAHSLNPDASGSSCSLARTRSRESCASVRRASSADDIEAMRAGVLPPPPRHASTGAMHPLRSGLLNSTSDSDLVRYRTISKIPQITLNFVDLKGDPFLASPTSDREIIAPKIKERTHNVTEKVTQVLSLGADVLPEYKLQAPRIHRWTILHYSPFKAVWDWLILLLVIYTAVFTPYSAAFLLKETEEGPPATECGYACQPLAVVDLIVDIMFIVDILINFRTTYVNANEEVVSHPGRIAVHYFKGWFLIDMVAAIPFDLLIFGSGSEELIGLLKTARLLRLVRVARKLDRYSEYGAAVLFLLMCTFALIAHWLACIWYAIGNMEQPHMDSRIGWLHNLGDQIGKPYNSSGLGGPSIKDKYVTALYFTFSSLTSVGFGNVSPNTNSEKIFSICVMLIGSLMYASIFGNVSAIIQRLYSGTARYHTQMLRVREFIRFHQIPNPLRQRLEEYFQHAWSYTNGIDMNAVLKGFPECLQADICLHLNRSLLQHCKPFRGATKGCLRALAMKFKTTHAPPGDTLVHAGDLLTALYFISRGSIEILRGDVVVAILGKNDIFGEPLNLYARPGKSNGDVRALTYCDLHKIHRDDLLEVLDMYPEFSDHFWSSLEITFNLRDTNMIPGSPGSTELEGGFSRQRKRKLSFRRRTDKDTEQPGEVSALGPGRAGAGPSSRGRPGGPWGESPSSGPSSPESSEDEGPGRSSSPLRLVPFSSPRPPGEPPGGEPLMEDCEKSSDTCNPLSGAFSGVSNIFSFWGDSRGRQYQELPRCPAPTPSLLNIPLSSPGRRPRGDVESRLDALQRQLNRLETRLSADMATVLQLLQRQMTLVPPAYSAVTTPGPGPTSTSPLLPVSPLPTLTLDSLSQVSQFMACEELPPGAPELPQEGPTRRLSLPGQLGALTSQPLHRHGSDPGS
Chain of HCK (P08631 whole entry): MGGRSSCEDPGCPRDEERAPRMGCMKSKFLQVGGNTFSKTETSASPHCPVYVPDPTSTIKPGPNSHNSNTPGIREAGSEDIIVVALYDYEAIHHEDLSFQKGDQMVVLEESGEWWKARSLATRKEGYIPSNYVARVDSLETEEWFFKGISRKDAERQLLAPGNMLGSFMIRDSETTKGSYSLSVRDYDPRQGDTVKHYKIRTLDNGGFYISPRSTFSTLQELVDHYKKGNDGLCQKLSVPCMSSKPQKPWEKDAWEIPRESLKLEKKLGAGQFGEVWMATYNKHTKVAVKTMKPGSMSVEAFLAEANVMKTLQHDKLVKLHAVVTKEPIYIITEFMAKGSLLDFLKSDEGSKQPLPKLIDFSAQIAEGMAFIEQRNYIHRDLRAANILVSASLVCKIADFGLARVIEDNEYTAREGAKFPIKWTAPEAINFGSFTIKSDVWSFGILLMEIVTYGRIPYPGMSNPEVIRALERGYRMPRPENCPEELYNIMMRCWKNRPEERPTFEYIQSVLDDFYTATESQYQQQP

SMILES | IC50 [1] [nM] | IC50 [3] [nM] | inhibition at 10 µM [2] [%]
CN1C2CCC1CN([C@H]1CC[C@H](n3nc(-c4ccc(NC(=O)c5ccccn5)cc4)c4c(N)ncnc43)CC1)C2 [Example 21, N-(4-(4-amino-1-((1r,4r)-4-(8-methyl-3,8-diazabicyclo[3.2.1]octan-3-yl)cyclohexyl)-1H-pyrazolo[3,4-d]pyrimidin-3-yl)phenyl)picolinamide] | 4.7 | 1180 | 48
CN1C2CCC1CN([C@H]1CC[C@H](n3nc(-c4ccc(NC(=O)c5cc6ccccc6n5C)cc4)c4c(N)ncnc43)CC1)C2 [Example 24, N-(4-(4-amino-1-((1r,4r)-4-(8-methyl-3,8-diazabicyclo[3.2.1]octan-3-yl)cyclohexyl)-1H-pyrazolo[3,4-d]pyrimidin-3-yl)phenyl)-1-methyl-1H-indole-2-carboxamide] | 9.73 | 3330 | 64
CN1C2CCC1CC(N1CCC(n3nc(-c4ccc(NC(=O)c5cc6ccccc6n5C)cc4)c4c(N)ncnc43)CC1)C2 (stereo not drawn) [Example 25, N-(4-(4-amino-1-(1-(8-methyl-8-azabicyclo[3.2.1]octan-3-yl)piperidin-4-yl)-1H-pyrazolo[3,4-d]pyrimidin-3-yl)phenyl)-1-methyl-1H-indole-2-carboxamide] | 2.05 | 2780 | 42
COc1cc(-c2nn([C@H]3CC[C@H](N4CCn5c(C)nnc5C4)CC3)c3ncnc(N)c23)ccc1NC(=O)c1cc2ccccc2n1C [Example 29, N-(4-(4-amino-1-((trans)-4-(3-methyl-5,6-dihydro[1,2,4]triazolo[4,3-a]pyrazin-7(8H)-yl)cyclohexyl)-1H-pyrazolo[3,4-d]pyrimidin-3-yl)-2-methoxyphenyl)-1-methyl-1H-indole-2-carboxamide] | 1.8 | 1340 | 17.1
Nc1ncnc2c1c(-c1ccc(Oc3ccccc3)cc1)cn2[C@H]1CC[C@H](N2CCN(CCO)CC2)CC1 [Example 41, 2-(4-((trans)-4-(4-Amino-5-(4-phenoxyphenyl)-7H-pyrrolo[2,3-d]pyrimidin-7-yl)cyclohexyl)piperazin-1-yl)ethan-1-ol] | – | 21 | 93
CC(C)N1CCN([C@H]2CC[C@H](n3cc(-c4ccc(Oc5ccccc5)cc4)c4c(N)ncnc43)CC2)CC1 [Example 42, 7-((trans)-4-(4-Isopropylpiperazin-1-yl)cyclohexyl)-5-(4-phenoxyphenyl)-7H-pyrrolo[2,3-d]pyrimidin-4-amine] | – | 22 | 88
Nc1ncnc2c1c(-c1ccc(Oc3ccccc3)cc1)cn2[C@H]1CC[C@H](NCc2ccncc2)CC1 [Example 44, 5-(4-phenoxyphenyl)-7-((trans)-4-((pyridin-4-ylmethyl)amino)cyclohexyl)-7H-pyrrolo[2,3-d]pyrimidin-4-amine] | – | 15 | 93
CN1C2CCC1CN([C@H]1CC[C@@H](n3nc(-c4ccc(Oc5ccccc5)cc4)c4c(N)ncnc43)CC1)C2 [Example 52, 1-((1s,4s)-4-(8-Methyl-3,8-diazabicyclo[3.2.1]octan-3-yl)cyclohexyl)-3-(4-phenoxyphenyl)-1H-pyrazolo[3,4-d]pyrimidin-4-amine] | 14.5 | 27 | 99
Nc1ncnc2c1c(-c1ccc(Oc3ccccc3)cc1)cn2[C@H]1CC[C@@H](N[C@H]2CCNC2=O)CC1 [Example 53, (S)-3-(((cis)-4-(4-amino-5-(4-phenoxyphenyl)-7H-pyrrolo[2,3-d]pyrimidin-7-yl)cyclohexyl)amino)pyrrolidin-2-one] | – | 30 | 97

Second part, led by results:

IC50 [1] [nM] | IC50 [3] [nM] | SMILES | inhibition at 10 µM [2] [%]
20 | 190 | Nc1ncnc2c1c(-c1ccc(Oc3ccccc3)cc1)nn2[C@H]1CC[C@H](NC(=O)c2cccnc2)CC1 [Example 22, N-((trans)-4-(4-amino-3-(4-phenoxyphenyl)-1H-pyrazolo[3,4-d]pyrimidin-1-yl)cyclohexyl)nicotinamide] | 50
1.6 | 609 | COc1cc(-c2cn([C@H]3CC[C@H](N4CCN(C)CC4)CC3)c3ncnc(N)c23)ccc1NC(=O)c1cc2ccccc2n1C [Example 27, N-(4-(4-amino-7-((trans)-4-(4-methylpiperazin-1-yl)cyclohexyl)-7H-pyrrolo[2,3-d]pyrimidin-5-yl)-2-methoxyphenyl)-1-methyl-1H-indole-2-carboxamide] | 39.3
7.7 | 3330 | COc1cc(-c2cn([C@H]3CC[C@@H](N4CCn5nc(C)cc5C4)CC3)c3ncnc(N)c23)ccc1NC(=O)c1cc2ccccc2n1C [Example 37, N-(4-(4-amino-7-((cis)-4-(2-methyl-6,7-dihydropyrazolo[1,5-a]pyrazin-5(4H)-yl)cyclohexyl)-7H-pyrrolo[2,3-d]pyrimidin-5-yl)-2-methoxyphenyl)-1-methyl-1H-indole-2-carboxamide] | –
2.8 | 6580 | COc1cc(-c2cn([C@H]3CC[C@@H](N4CCn5nccc5C4)CC3)c3ncnc(N)c23)ccc1NC(=O)c1cc2ccccc2n1C [Example 38, N-(4-(4-amino-7-((cis)-4-(6,7-dihydropyrazolo[1,5-a]pyrazin-5(4H)-yl)cyclohexyl)-7H-pyrrolo[2,3-d]pyrimidin-5-yl)-2-methoxyphenyl)-1-methyl-1H-indole-2-carboxamide] | –
4 | 4620 | COc1cc(-c2cn([C@H]3CC[C@H](N4CCn5c(C)cnc5C4)CC3)c3ncnc(N)c23)ccc1NC(=O)c1cc2ccccc2n1C [Example 39, N-(4-(4-amino-7-((trans)-4-(3-methyl-5,6-dihydroimidazo[1,2-a]pyrazin-7(8H)-yl)cyclohexyl)-7H-pyrrolo[2,3-d]pyrimidin-5-yl)-2-methoxyphenyl)-1-methyl-1H-indole-2-carboxamide] | –
4 | 16 | COCCN1CCN([C@H]2CC[C@H](n3cc(-c4ccc(Oc5ccccc5)cc4)c4c(N)ncnc43)CC2)CC1 [Example 40, 7-((trans)-4-(4-(2-Methoxyethyl)pyrazin-1-yl)cyclohexyl)-5-(4-phenoxyphenyl)-7H-pyrrolo[2,3-d]pyrimidin-4-amine] | 96
6.5 | 12 | Nc1ncnc2c1c(-c1ccc(Oc3ccccc3)cc1)cn2[C@H]1CC[C@@H](NCc2ccccn2)CC1 [Example 47, 5-(4-Phenoxyphenyl)-7-((cis)-4-((pyridin-2-ylmethyl)amino)cyclohexyl)-7H-pyrrolo[2,3-d]pyrimidin-4-amine] | 99
0.53 | 23 | Cn1nccc1CN[C@H]1CC[C@@H](n2cc(-c3ccc(Oc4ccccc4)cc3)c3c(N)ncnc32)CC1 [Example 49, 7-((cis)-4-(((1-Methyl-1H-pyrazol-5-yl)methyl)amino)cyclohexyl)-5-(4-phenoxyphenyl)-7H-pyrrolo[2,3-d]pyrimidin-4-amine] | 99
9.6 | 39 | Cn1nccc1CN[C@H]1CC[C@H](n2cc(-c3ccc(Oc4ccccc4)cc3)c3c(N)ncnc32)CC1 [Example 50, 7-((trans)-4-(((1-Methyl-1H-pyrazol-5-yl)methyl)amino)cyclohexyl)-5-(4-phenoxyphenyl)-7H-pyrrolo[2,3-d]pyrimidin-4-amine] | 97
8 | 34 | Cn1ccc(CN[C@H]2CC[C@@H](n3cc(-c4ccc(Oc5ccccc5)cc4)c4c(N)ncnc43)CC2)n1 [Example 51, 7-((cis)-4-(((1-Methyl-1H-pyrazol-3-yl)methyl)amino)cyclohexyl)-5-(4-phenoxyphenyl)-7H-pyrrolo[2,3-d]pyrimidin-4-amine] | 100
23 | 43 | Nc1ncnc2c1c(-c1ccc(Oc3ccccc3)cc1)cn2[C@H]1CC[C@H](N2CCn3c(nnc3C(F)(F)F)C2)CC1 [Example 58, 5-(4-Phenoxyphenyl)-7-((trans)-4-(3-(trifluoromethyl)-5,6-dihydro[1,2,4]triazolo[4,3-a]pyrazin-7(8H)-yl)cyclohexyl)-7H-pyrrolo[2,3-d]pyrimidin-4-amine] | –
3 | 55 | CN1CCN([C@H]2CC[C@H](n3nc(-c4ccc(Oc5ccccc5)cc4)c4c(N)ncnc43)CC2)CC1 [Example 59, 1-((trans)-4-(4-Methylpiperazin-1-yl)cyclohexyl)-3-(4-phenoxyphenyl)-1H-pyrazolo[3,4-d]pyrimidin-4-amine] | –
